# Columns and labels:
# Format in all cases: in vivo
# lettuce young plants = assay: Dwarfing test of lettuce young plant; conditions: for Plant Height / Dwarfing Rate: 5 ml per cell on 5th day, measured 20th day; for Dwarfing Rate: vs comparative group
# Description: (§1) 50 g of sodium tripolyphosphate was dissolved in 400 ml of distilled water at 80° C., 17.5 g of cinnamic acid was added to the sodium tripolyphosphate solution and dissolved by stirring, the resultant solution was diluted with distilled water until the total volume of solution was 500 ml, and thus 3.5% cinnamic acid aqueous solution (pH 6.5) was prepared. The aqueous solution was further diluted with distilled water 70 times or 17.5 times, and 0.05% cinnamic acid aqueous solution and 0.2% cinnamic acid aqueous solution were prepared, respectively.
# (§2) Nursery soil for house use was filled into paper joint pots (each with 24 cells: 34×43×50 mm/cell), water was sufficiently given to the soil, and seeds of carrots were sowed. After seeding, the pot was placed in the same greenhouse as described above to sprout. Subsequently, on the 5th day, the cinnamic aqueous acid solutions were added to the nursery soil in the joint pots. One of the joint pots (24 cells) was prepared as a 0.05% cinnamic acid aqueous solution addition group, and 5 ml of the 0.05% cinnamic acid aqueous solution was added to the nursery soil of each cell. Another one of the join pots was prepared as a 0.2% cinnamic acid aqueous solution addition group, and 5 ml of the 0.2% cinnamic acid aqueous solution was added to the nursery soil of each cell. The other one of the joint pots was prepared as a comparative group in which 5 ml of water is added to each cell, instead of the cinnamic acid aqueous solution. Subsequently, the cultivation of carrot young plants in each group was continued under general conditions. On the 27th day, the heights of young plants in each group were measured, the dwarfing rate (%) was calculated, and the dwarfing effect of cinnamic acid aqueous solution on carrot young plants was examined. […].
# In the same way as in Example 5 except that seeds of lettuce were sowed, and that heights of young plants in each group were measured on the 20th day, the dwarfing effect of cinnamic acid aqueous solution on lettuce young plants was examined. […]
# [1] = system: Japanese radish young plants; assay: Dwarfing test of Japanese radish young plant; conditions: for Plant Height / Dwarfing Rate: 5 ml per cell on 5th day, measured 27th day; for Dwarfing Rate: vs comparative group
# Description: as §1, §2
# In the same way as in Example 5 except that seeds of Japanese radish were sowed, the dwarfing effect of cinnamic acid aqueous solution on Japanese radish young plants was examined. […]
# broccoli young plants = assay: Dwarfing test of broccoli young plant; conditions: for Plant Height / Dwarfing Rate: 5 ml per cell on 4th day, measured 20th day; for Dwarfing Rate: vs comparative group
# Description: as §1, §2
# In the same way as in Example 12 except that seeds of broccoli were sowed, the dwarfing effect of cinnamic acid aqueous solution on broccoli young plants was examined. […]
# melon young plants = assay: Dwarfing test of melon young plant; conditions: for Plant Height / Dwarfing Rate: 5 ml per cell on 7th day, measured 25th day; for Dwarfing Rate: vs comparative group
# Description: After seeding, the pot was placed in the same greenhouse as described above to sprout. Subsequently, on the 5th day, the cinnamic aqueous acid solutions were added to the nursery soil in the joint pots. One of the joint pots (24 cells) was prepared as a 0.05% cinnamic acid aqueous solution addition group, and 5 ml of the 0.05% cinnamic acid aqueous solution was added to the nursery soil of each cell. Another one of the join pots was prepared as a 0.2% cinnamic acid aqueous solution addition group, and 5 ml of the 0.2% cinnamic acid aqueous solution was added to the nursery soil of each cell. […] Subsequently, the cultivation of carrot young plants in each group was continued under general conditions. On the 27th day, the heights of young plants in each group were measured, the dwarfing rate (%) was calculated, and the dwarfing effect of cinnamic acid aqueous solution on carrot young plants was examined. From the results in Table 5, it became evident that the 0.05% and 0.2% cinnamic acid aqueous solutions are effective in dwarfing carrot young plants. In the same way as in Example 5 except that seeds of cauliflower were sowed, the cinnamic acid solutions were added to the nursery soil in the joint pot on the 4th day, and that heights of young plants in each group were measured on the 20th day, the dwarfing effect of cinnamic acid aqueous solution on cauliflower young plants was examined. From the results in Table 12, it became evident that the cinnamic acid aqueous solutions are effective in dwarfing cauliflower young plants. In the same way as in Example 12 except that seeds of tomato were sowed, and that the cinnamic acid solutions were added to the nursery soil of the joint pot on the 7th day, the dwarfing effect of cinnamic acid aqueous solution on tomato young plants was examined. From the results in Table 17, it became evident that the cinnamic acid aqueous solutions are effective in dwarfing tomato young plants. In the same way as in Example 17 except that seeds of melon were sowed, and that plant heights were measured on the 25th day, the dwarfing effect of cinnamic acid aqueous solution on melon young plants was examined. From the results in Table 25, it became evident that the cinnamic acid aqueous solutions are effective in dwarfing melon young plants.
smiles,measurement,setting,value
O=C(O)C=Cc1ccccc1 [cinnamic acid],Plant Height,lettuce young plants; 0.05% aqueous solution,5.7 cm
same,Dwarfing Rate,lettuce young plants; 0.05% aqueous solution,6.6%
same,Plant Height,lettuce young plants; 0.2% aqueous solution,4.3 cm
same,Dwarfing Rate,lettuce young plants; 0.2% aqueous solution,29.5%
same,dwarfing effect,"lettuce young plants; lettuce young plants, 0.05% and 0.2% aqueous solutions",effective
same,Plant Height,[1]; 0.05% aqueous solution,15.3 cm
same,Dwarfing Rate,[1]; 0.05% aqueous solution,1.9%
same,Plant Height,[1]; 0.2% aqueous solution,10.9 cm
same,Dwarfing Rate,[1]; 0.2% aqueous solution,30.1%
same,dwarfing effect,"[1]; Japanese radish young plants, 0.05% and 0.2% aqueous solutions",effective
same,Plant Height,broccoli young plants; 0.05% aqueous solution,8.8 cm
same,Dwarfing Rate,broccoli young plants; 0.05% aqueous solution,6.4%
same,Plant Height,broccoli young plants; 0.2% aqueous solution,6.4 cm
same,Dwarfing Rate,broccoli young plants; 0.2% aqueous solution,31.9%
same,dwarfing effect,"broccoli young plants; broccoli young plants, 0.05% and 0.2% aqueous solutions",effective
same,Plant Height,melon young plants; 0.05% aqueous solution,6.3 cm
same,Dwarfing Rate,melon young plants; 0.05% aqueous solution,4.5%
same,Plant Height,melon young plants; 0.2% aqueous solution,4.1 cm
same,Dwarfing Rate,melon young plants; 0.2% aqueous solution,37.9%
same,dwarfing effect,"melon young plants; melon young plants, 0.05% and 0.2% aqueous solutions",effective
